Results taken from ChEMBL document CHEMBL2311418, “Structure-activity relationships of antitubercular salicylanilides consistent with disruption of the proton gradient via proton shuttling” (Bioorg Med Chem, 2013).
Converted amounts (≈) assume the structure as drawn.

Columns and labels:
[1] = Cytotoxicity against mouse macrophage cell line J774.1 (ATCC TIB-67) for 3 days by Alamar Blue; assay type: cell-based; conditions: 72 h
[2] = system: Mycobacterium tuberculosis; assay: Antitubercular activity against Mycobacterium tuberculosis H37Rv ATCC27294 assessed as complete cessation of growth; assay type: functional; conditions: H37Rv ATCC 27294

| Compound | IC50 [1] | MIC [2] |
| --- | --- | --- |
| O=C(Nc1ccccc1)c1cc(Cl)ccc1O | 22 µM | 13 µM (≈ 3.22 µg/mL) |
| Cc1cc(NS(=O)(=O)c2ccc(NC(=O)c3cc(Cl)ccc3O)cc2)no1 | > 60 µM | > 50 µM |
| O=C(Nc1ccc(C(F)(F)F)cc1)c1cc(Cl)ccc1O | 2.8 µM | 1.6 µM (≈ 0.505 µg/mL) |
| Cc1cc(C)cc(NC(=O)c2cc(Cl)ccc2O)c1 | 21 µM | ≥ 50 µM |
| O=C(Nc1cccc(Br)c1)c1cc(Cl)ccc1O | 5.7 µM | 6.3 µM (≈ 2.06 µg/mL) |
| N#Cc1cccc(NC(=O)c2cc(Cl)ccc2O)c1 | 10 µM | 25 µM (≈ 6.82 µg/mL) |
| O=C(Nc1cccc(F)c1)c1cc(Cl)ccc1O | 15 µM | 6.3 µM (≈ 1.67 µg/mL) |
| O=C(Nc1cc(Cl)cc(Cl)c1)c1cc(Cl)ccc1O | 3.1 µM | 1.6 µM (≈ 0.507 µg/mL) |
| O=C(Nc1cc(F)cc(F)c1)c1cc(Cl)ccc1O | 6.1 µM | 3.1 µM (≈ 0.879 µg/mL) |
| O=C(O)c1cccc(NC(=O)c2cc(Cl)ccc2O)c1 | > 60 µM | > 50 µM |
| CCOC(=O)c1cccc(NC(=O)c2cc(Cl)ccc2O)c1 | 17 µM | 13 µM (≈ 4.16 µg/mL) |
| NC(=O)c1cccc(NC(=O)c2cc(Cl)ccc2O)c1 | > 60 µM | > 50 µM |
| O=C(Nc1ccccc1)c1cccc(NC(=O)c2cc(Cl)ccc2O)c1 | > 60 µM | > 50 µM |
| O=C(Nc1ccc(F)cc1)c1cc(Cl)ccc1O | 17 µM | 13 µM (≈ 3.45 µg/mL) |
| O=C(Nc1ccc(OC(F)(F)F)cc1)c1cc(Cl)ccc1O | 7.3 µM | 3.1 µM (≈ 1.03 µg/mL) |
| O=C(Nc1ccc(Oc2ccccc2)cc1)c1cc(Cl)ccc1O | 43 µM | 13 µM (≈ 4.42 µg/mL) |
| CC(C)(C)c1ccc(NC(=O)c2cc(Cl)ccc2O)cc1 | 19 µM | 13 µM (≈ 3.95 µg/mL) |
| COc1ccc(NC(=O)c2cc(Cl)ccc2O)cc1 | > 60 µM | > 50 µM |
| O=C(Nc1ccc(N2CCOCC2)cc1)c1cc(Cl)ccc1O |  | > 50 µM |
| NC(=O)c1ccc(NC(=O)c2cc(Cl)ccc2O)cc1 | > 60 µM | > 50 µM |
| O=C(Nc1ccccc1)c1ccc(NC(=O)c2cc(Cl)ccc2O)cc1 | > 60 µM | > 50 µM |
| O=C(Nc1ccc(S(=O)(=O)Nc2ccccc2)cc1)c1cc(Cl)ccc1O | > 60 µM | > 50 µM |
| Cc1c(NC(=O)c2cc(Cl)ccc2O)cccc1C(F)(F)F | 8 µM | 3.1 µM (≈ 1.02 µg/mL) |
| O=C(Nc1cccc(C(F)(F)F)c1F)c1cc(Cl)ccc1O | 5.3 µM | 3.1 µM (≈ 1.03 µg/mL) |

| Compound | IC50 [1] | MIC [2] |
| --- | --- | --- |
| O=C(Nc1cccc(F)c1F)c1cc(Cl)ccc1O | 13 µM | 13 µM (≈ 3.69 µg/mL) |
| O=C(Nc1ccc(F)cc1C(F)(F)F)c1cc(Cl)ccc1O | 13 µM | 6.3 µM (≈ 2.1 µg/mL) |
| O=C(Nc1ccc(Br)cc1C(F)(F)F)c1cc(Cl)ccc1O | 11 µM | 6.3 µM (≈ 2.49 µg/mL) |
| O=C(Nc1ccc(C(F)(F)F)cc1Cl)c1cc(Cl)ccc1O | 2.4 µM | 0.8 µM (≈ 0.28 µg/mL) |
| O=C(Nc1ccc(F)cc1F)c1cc(Cl)ccc1O | 8.5 µM | 13 µM (≈ 3.69 µg/mL) |
| O=C(Nc1cc(C(F)(F)F)ccc1Cl)c1cc(Cl)ccc1O | 3.5 µM | 1.6 µM (≈ 0.56 µg/mL) |
| O=C(Nc1cc(C(F)(F)F)ccc1F)c1cc(Cl)ccc1O | 2.6 µM | 1.6 µM (≈ 0.534 µg/mL) |
| O=C(Nc1cc(C(F)(F)F)ccc1Br)c1cc(Cl)ccc1O | 2.9 µM | 0.8 µM (≈ 0.316 µg/mL) |
| COc1ccc(C(F)(F)F)c(NC(=O)c2cc(Cl)ccc2O)c1 | 4.8 µM | 6.3 µM (≈ 2.18 µg/mL) |
| O=C(Nc1cc(F)ccc1Cl)c1cc(Cl)ccc1O | 3.2 µM | 3.1 µM (≈ 0.93 µg/mL) |
| O=C(Nc1cc([N+](=O)[O-])ccc1F)c1cc(Cl)ccc1O | 8.5 µM | 6.3 µM (≈ 1.96 µg/mL) |
| O=C(Nc1c(Cl)cccc1C(F)(F)F)c1cc(Cl)ccc1O | 23 µM | > 50 µM |
| O=C(Nc1c(F)cccc1F)c1cc(Cl)ccc1O | > 60 µM | > 50 µM |
| O=C(Nc1ccc(F)c(C(F)(F)F)c1)c1cc(Cl)ccc1O | 5.3 µM | 1.6 µM (≈ 0.534 µg/mL) |
| O=C(Nc1ccc(Cl)c(C(F)(F)F)c1)c1cc(Cl)ccc1O | 4.5 µM | 1.6 µM (≈ 0.56 µg/mL) |
| O=C(Nc1ccc(Br)c(C(F)(F)F)c1)c1cc(Cl)ccc1O | 4.5 µM | 3.1 µM (≈ 1.22 µg/mL) |
| N#Cc1ccc(NC(=O)c2cc(Cl)ccc2O)cc1C(F)(F)F | 5.8 µM | 6.3 µM (≈ 2.15 µg/mL) |
| O=C(Nc1ccc(F)c(Cl)c1)c1cc(Cl)ccc1O | 4.4 µM | 3.1 µM (≈ 0.93 µg/mL) |
| O=C(Nc1ccc(F)c(F)c1)c1cc(Cl)ccc1O | 7.7 µM | 3.1 µM (≈ 0.879 µg/mL) |
| Cc1ccc(NC(=O)c2cc(Cl)ccc2O)cc1I | 6.3 µM | 6.3 µM (≈ 2.44 µg/mL) |
| O=C(Nc1cc(Br)ccc1C(F)(F)F)c1cc(Cl)ccc1O | 5.8 µM | 1.6 µM (≈ 0.631 µg/mL) |
| COc1cc(NC(=O)c2cc(Cl)ccc2O)cc(C(F)(F)F)c1 | 18 µM | 6.3 µM (≈ 2.18 µg/mL) |
| CC(C)(C)c1cc(NC(=O)c2cc(Cl)ccc2O)cc(C(C)(C)C)c1 | 4.1 µM | 6.3 µM (≈ 2.27 µg/mL) |
| Cc1c(C(F)(F)F)cc(NC(=O)c2cc(Cl)ccc2O)cc1C(F)(F)F | < 1.9 µM | 0.8 µM (≈ 0.318 µg/mL) |

| Compound | IC50 [1] | MIC [2] |
| --- | --- | --- |
| Cc1c(NC(=O)c2cc(Cl)ccc2O)cc(C(F)(F)F)cc1C(F)(F)F | 3.2 µM | 3.1 µM (≈ 1.23 µg/mL) |
| O=C(Nc1cc(F)c(Br)c(F)c1)c1cc(Cl)ccc1O | 4.3 µM | 1.6 µM (≈ 0.58 µg/mL) |
| O=C(Nc1cc(F)c(F)c(F)c1)c1cc(Cl)ccc1O | 4.7 µM | 1.6 µM (≈ 0.483 µg/mL) |
| O=C(Nc1cc(Cl)c(Cl)c(Cl)c1)c1cc(Cl)ccc1O | 5.4 µM | 1.6 µM (≈ 0.562 µg/mL) |
| O=C(Nc1cc(F)c(F)cc1F)c1cc(Cl)ccc1O | 6.2 µM | 3.1 µM (≈ 0.935 µg/mL) |
| O=C(Nc1ccc(F)c(F)c1F)c1cc(Cl)ccc1O | 6.7 µM | 6.3 µM (≈ 1.9 µg/mL) |
| COc1cc(NC(=O)c2cc(Cl)ccc2O)c(Cl)cc1Cl | 8 µM | 13 µM (≈ 4.51 µg/mL) |
| O=C(Nc1cc(O)c(Cl)cc1Cl)c1cc(Cl)ccc1O | 32 µM | > 50 µM |
| O=C(Nc1cc(Br)cc(C(F)(F)F)c1)c1cc(F)ccc1O | 4.7 µM | 3.1 µM (≈ 1.17 µg/mL) |
| O=C(Nc1cc(C(F)(F)F)ccc1Cl)c1cc(F)ccc1O | 6.1 µM | 3.1 µM (≈ 1.03 µg/mL) |
| O=C(Nc1cc(F)cc(F)c1)c1cc(F)ccc1O | 9.6 µM | 6.3 µM (≈ 1.68 µg/mL) |
| O=C(Nc1ccc(C(F)(F)F)cc1)c1cc(F)ccc1O | 5.4 µM | 3.1 µM (≈ 0.928 µg/mL) |
| O=C(Nc1cc(C(F)(F)F)ccc1F)c1cc(F)ccc1O | 5.1 µM | 6.3 µM (≈ 2 µg/mL) |
| O=C(Nc1cccc(C(F)(F)F)c1)c1cc(F)ccc1O | 6.1 µM | 6.3 µM (≈ 1.89 µg/mL) |
| O=C(Nc1cc(C(F)(F)F)cc(C(F)(F)F)c1)c1cccc(Cl)c1 | > 60 µM | > 50 µM |
| O=C(Nc1cc(C(F)(F)F)cc(C(F)(F)F)c1)c1ccccc1 |  | > 50 µM |
| O=C(Nc1cc(C(F)(F)F)cc(C(F)(F)F)c1)c1cc(-n2cccc2)ccc1O | 3.1 µM | 3.1 µM (≈ 1.28 µg/mL) |
| Cc1ccc(O)c(C(=O)Nc2cc(C(F)(F)F)cc(C(F)(F)F)c2)c1 | 5.4 µM | 6.3 µM (≈ 2.29 µg/mL) |
| O=C(Nc1cc(C(F)(F)F)cc(C(F)(F)F)c1)c1cc(F)ccc1O | 2.5 µM | 3.1 µM (≈ 1.14 µg/mL) |
| O=C(Nc1cc(C(F)(F)F)cc(C(F)(F)F)c1)c1cc(Br)ccc1O | 4.9 µM | 6.3 µM (≈ 2.7 µg/mL) |
| O=C(Nc1cc(C(F)(F)F)cc(C(F)(F)F)c1)c1cc(I)ccc1O | 5.6 µM | 6.3 µM (≈ 2.99 µg/mL) |
| COc1ccc(O)c(C(=O)Nc2cc(C(F)(F)F)cc(C(F)(F)F)c2)c1 | 7.7 µM | 6.3 µM (≈ 2.39 µg/mL) |
| O=C(Nc1cc(C(F)(F)F)cc(C(F)(F)F)c1)c1cc(Cl)cc(Cl)c1O | > 60 µM | 13 µM (≈ 5.44 µg/mL) |
| O=C(Nc1cc(C(F)(F)F)cc(C(F)(F)F)c1)c1cccc(O)c1O | 1.7 µM | > 50 µM |

| Compound | IC50 [1] | MIC [2] |
| --- | --- | --- |
| O=C(Nc1cc(C(F)(F)F)cc(C(F)(F)F)c1)c1cc([N+](=O)[O-])ccc1O | > 60 µM | ≥ 50 µM |
| CC(=O)Oc1ccc(Cl)cc1C(=O)Nc1cc(C(F)(F)F)cc(C(F)(F)F)c1 | > 60 µM | 1.6 µM (≈ 0.681 µg/mL) |
| COc1ccc(Cl)cc1C(=O)Nc1cc(C(F)(F)F)cc(C(F)(F)F)c1 | > 60 µM | > 50 µM |
| O=C(Nc1cc(C(F)(F)F)cc(C(F)(F)F)c1)c1cc(Cl)ccc1OCc1ccccc1 | > 60 µM | > 50 µM |
| Nc1ccc(Cl)cc1C(=O)Nc1cc(C(F)(F)F)cc(C(F)(F)F)c1 | > 60 µM | > 50 µM |
| O=C(Nc1cc(C(F)(F)F)cc(C(F)(F)F)c1)c1ccccc1Cl | > 1.7 µM | > 50 µM |
| Oc1ccc(Cl)cc1CNc1cc(C(F)(F)F)cc(C(F)(F)F)c1 | 7.8 µM | ≥ 50 µM |
| O=C(Nc1cc(C(F)(F)F)cc(C(F)(F)F)c1)Nc1cc(Cl)ccc1O | 13 µM | ≥ 50 µM |
| O=C(Oc1cc(C(F)(F)F)cc(C(F)(F)F)c1)c1cc(Cl)ccc1O | > 60 µM | > 50 µM |
| O=C(Nc1cc(Cl)ccc1O)c1cc(C(F)(F)F)cc(C(F)(F)F)c1 | 12 µM | > 50 µM |
| Oc1ccc(Cl)cc1C(=S)Nc1cc(C(F)(F)F)cc(C(F)(F)F)c1 |  | 1.6 µM (≈ 0.64 µg/mL) |
| O=S(=O)(Nc1cc(C(F)(F)F)cc(C(F)(F)F)c1)c1cc(Cl)ccc1O | 23 µM | ≥ 50 µM |
| O=C(NCc1cc(C(F)(F)F)cc(C(F)(F)F)c1)c1cc(Cl)ccc1O | 27 µM | 6.3 µM (≈ 2.51 µg/mL) |
| O=C(Nc1ccccc1C(F)(F)F)c1cc(Cl)ccc1O | 19 µM |  |
| O=C(Nc1ccc(C(F)(F)F)c(C(F)(F)F)c1)c1cc(Cl)ccc1O | 4.9 µM | 0.8 µM (≈ 0.307 µg/mL) |
| O=C(Nc1cccc(C(F)(F)F)c1C(F)(F)F)c1cc(Cl)ccc1O | 8.1 µM | 6.3 µM (≈ 2.42 µg/mL) |
| O=C(Nc1cc(C(F)(F)F)ccc1C(F)(F)F)c1cc(Cl)ccc1O | 6.6 µM | 3.1 µM (≈ 1.19 µg/mL) |
| O=C(Nc1ccccc1S(=O)(=O)c1ccccc1)c1cc(Cl)ccc1O | > 60 µM | > 50 µM |
| O=C(Nc1cc(C(F)(F)F)cc(C(F)(F)F)c1)c1ccccc1O | 12 µM | 6.3 µM (≈ 2.2 µg/mL) |
| N#Cc1ccc(NC(=O)c2cc(Cl)ccc2O)cc1 | 11 µM | 13 µM (≈ 3.54 µg/mL) |
| O=C(Nc1cccc(C(F)(F)F)c1)c1cc(Cl)ccc1O | 5.9 µM | 3.1 µM (≈ 0.979 µg/mL) |
| O=C(Nc1cc(C(F)(F)F)cc(C(F)(F)F)c1)c1cc(Cl)ccc1O [IMD-0354] | 5.2 µM | 3.1 µM (≈ 1.19 µg/mL) |
